# Reference: ChEMBL document CHEMBL6096630, “Enhancing therapeutic efficacy in homologous recombination-proficient pancreatic cancer via the combination of PARP1-PROTAC and a BRD4 inhibitor” (Bioorg Med Chem, 2024)
# The source made the active and inactive calls. The rule behind the calls is not given here.
# Legend:
# PANC-1 [1] = test: Induction of apoptosis in human PANC-1 cells assessed as early apoptotic cells at 2 uM incubated for 48 hrs by Annexin V-FITC/PI staining based flow cytometry (reference value: 1.41 %); type: functional
# PANC-1 [2] = test: Induction of apoptosis in human PANC-1 cells assessed as necrotic cells at 5 uM incubated for 48 hrs by Annexin V-FITC/PI staining based flow cytometry (reference value: 3.09 %); type: functional
# PANC-1 [3] = test: Induction of apoptosis in human PANC-1 cells assessed as late apoptotic cells at 2 uM incubated for 48 hrs by Annexin V-FITC/PI staining based flow cytometry (reference value: 3.87 %); type: functional
# PANC-1 [4] = test: Antiproliferative activity against human PANC-1 cells expressing wild-type BRCA assessed as inhibition of cell survival incubated for 5 days by CCK8 assay; type: functional, cell-based; conditions: PANC-1, 120 h
# PANC-1 [5] = test: Induction of cell cycle arrest in human PANC-1 cells assessed as accumulation at G2 phase at 10 uM incubated for 24 hrs by PI staining based flow cytometry (reference value: 9.36 %); type: functional
# CAPAN-1 = test: Antiproliferative activity against human CAPAN-1 cells expressing BRCA-/- assessed as inhibition of cell survival incubated for 5 days by CCK8 assay; type: functional, cell-based; conditions: CAPAN-1, 120 h
# BXPC-3 = test: Antiproliferative activity against human BXPC-3 cells expressing wild-type BRCA assessed as inhibition of cell survival incubated for 5 days by CCK8 assay; type: functional, cell-based; conditions: BXPC-3, 120 h
# [6] = Toxicity in BALB/c mouse xenografted with human PANC-1 cells assessed as body weight loss at 40 mg/kg, ip for 4 weeks administered for 5 days consecutively and 2 days without treatment on every week in presence of JQ1; type: organism-based; conditions: in vivo, 672 h
# PANC-1 [7] = test: Induction of apoptosis in human PANC-1 cells assessed as viable cells at 2 uM incubated for 48 hrs by Annexin V-FITC/PI staining based flow cytometry (reference value: 91.64 %); type: functional; conditions: read-out: Activity
# [8] = Toxicity in BALB/c mouse xenografted with human PANC-1 cells assessed as pathological changes in kidney at 40 mg/kg, ip for 4 weeks administered for 5 days consecutively and 2 days without treatment on every week by H and E staining based analysis; type: organism-based; conditions: in vivo, 672 h
# PANC-1 [9] = test: Induction of cell cycle arrest in human PANC-1 cells assessed as accumulation at G1 phase at 2 uM incubated for 24 hrs by PI staining based flow cytometry (reference value: 51.70 %); type: functional
# PANC-1 [10] = test: Induction of apoptosis in human PANC-1 cells assessed as necrotic cells at 2 uM incubated for 48 hrs by Annexin V-FITC/PI staining based flow cytometry (reference value: 3.09 %); type: functional
# PANC-1 [11] = test: Induction of cell cycle arrest in human PANC-1 cells assessed as accumulation at G0/G1 phase at 2 uM incubated for 24 hrs in presence of JQ1 by PI staining based flow cytometry relative to control; type: functional
# PANC-1 [12] = test: Antitumor activity against human PANC-1 cells xenografted in BALB/c mouse assessed as reduction in tumor growth at 40 mg/kg, ip for 4 weeks administered for 5 days consecutively and 2 days without treatment on every week; type: functional, organism-based
# [13] = Toxicity in BALB/c mouse xenografted with human PANC-1 cells assessed as animal morbidity at 40 mg/kg, ip for 4 weeks administered for 5 days consecutively and 2 days without treatment on every week in presence of JQ1; type: organism-based; conditions: in vivo, 672 h
# PANC-1 [14] = test: Antitumor activity against human PANC-1 cells xenografted in BALB/c mouse assessed as reduction in tumor growth at 40 mg/kg, ip for 4 weeks administered for 5 days consecutively and 2 days without treatment on every week in presence of JQ1; type: functional, organism-based
# PANC-1 [15] = test: Induction of cell cycle arrest in human PANC-1 cells assessed as accumulation at G2 phase at 5 uM incubated for 24 hrs by PI staining based flow cytometry (reference value: 9.36 %); type: functional
# PANC-1 [16] = test: Induction of apoptosis in human PANC-1 cells assessed as late apoptotic cells at 2.5 uM incubated for 48 hrs by Annexin V-FITC/PI staining based flow cytometry (reference value: 3.87 %); type: functional
# [17] = Toxicity in BALB/c mouse xenografted with human PANC-1 cells assessed as animal mortality at 40 mg/kg, ip for 4 weeks administered for 5 days consecutively and 2 days without treatment on every week in presence of JQ1; type: organism-based; conditions: in vivo, 672 h
# PANC-1 [18] = test: Induction of cell cycle arrest in human PANC-1 cells assessed as accumulation at G2 phase at 2 uM incubated for 24 hrs by PI staining based flow cytometry (reference value: 9.36 %); type: functional
# [19] = Toxicity in BALB/c mouse xenografted with human PANC-1 cells assessed as pathological changes in lung at 40 mg/kg, ip for 4 weeks administered for 5 days consecutively and 2 days without treatment on every week in presence of JQ1 by H and E staining based analysis; type: organism-based; conditions: in vivo, 672 h
# [20] = Toxicity in BALB/c mouse xenografted with human PANC-1 cells assessed as drug tolerance at 40 mg/kg, ip for 4 weeks administered for 5 days consecutively and 2 days without treatment on every week in presence of JQ1; type: organism-based; conditions: in vivo, 672 h
# PANC-1 [21] = test: Induction of cell cycle arrest in human PANC-1 cells assessed as accumulation at G1 phase at 2 uM incubated for 24 hrs in presence of JQ1 by PI staining based flow cytometry (reference value: 51.70 %); type: functional
# PANC-1 [22] = test: Induction of cell cycle arrest in human PANC-1 cells assessed as accumulation at G2 phase at 0.6 uM incubated for 24 hrs by PI staining based flow cytometry (reference value: 9.36 %); type: functional
# PANC-1 [23] = test: Induction of apoptosis in human PANC-1 cells assessed as early apoptotic cells at 2.5 uM incubated for 48 hrs by Annexin V-FITC/PI staining based flow cytometry (reference value: 1.41 %); type: functional
# PANC-1 [24] = test: Induction of cell cycle arrest in human PANC-1 cells assessed as accumulation at S phase at 2 uM incubated for 24 hrs by PI staining based flow cytometry (reference value: 38.94 %); type: functional
# PANC-1 [25] = test: Induction of DNA damage in human PANC-1 cells assessed as decrease in RAD51 level at 2 uM in presence of JQ1 by Western blot analysis; type: functional, cell-based
# PANC-1 [26] = test: Induction of apoptosis in human PANC-1 cells assessed as late apoptotic cells at 5 uM incubated for 48 hrs by Annexin V-FITC/PI staining based flow cytometry (reference value: 3.87 %); type: functional
# PANC-1 [27] = test: Induction of apoptosis in human PANC-1 cells assessed as necrotic cells at 10 uM incubated for 48 hrs by Annexin V-FITC/PI staining based flow cytometry (reference value: 3.09 %); type: functional
# PANC-1 [28] = test: Induction of cell cycle arrest in human PANC-1 cells assessed as accumulation at S phase at 0.6 uM incubated for 24 hrs by PI staining based flow cytometry (reference value: 38.94 %); type: functional
# PANC-1 [29] = test: Induction of apoptosis in human PANC-1 cells assessed as viable cells at 10 uM incubated for 48 hrs by Annexin V-FITC/PI staining based flow cytometry (reference value: 91.64 %); type: functional; conditions: read-out: Activity
# PANC-1 [30] = test: Induction of apoptosis in human PANC-1 cells assessed as viable cells at 2.5 uM incubated for 48 hrs by Annexin V-FITC/PI staining based flow cytometry (reference value: 91.64 %); type: functional; conditions: read-out: Activity
smiles,measurement,setting,value
O=C1CCC(N2C(=O)c3cccc(NC(=O)CNCCCCCCCCCCC(=O)N4CCN(C(=O)c5cc(Cc6n[nH]c(=O)c7ccccc67)ccc5F)CC4)c3C2=O)C(=O)N1 (centres undefined),Activity,PANC-1 [1],4.35%
same,Activity,PANC-1 [2],4.28%
same,Activity,PANC-1 [3],5.84%
same,IC50,PANC-1 [4],< 10 µM
same,Activity,PANC-1 [5],15.94%
same,IC50,CAPAN-1,< 10 µM
same,IC50,BXPC-3,< 10 µM
same,Activity,[6],Non-toxic
same,viability at 2 µM,PANC-1 [7],86.3%
same,Activity,[8],Non-toxic
same,Activity,PANC-1 [9],43.66%
same,Activity,PANC-1 [10],3.54%
same,Activity,PANC-1 [11],50.25%
same,Activity,PANC-1 [12],Active
same,Activity,[13],Non-toxic
same,Activity,PANC-1 [14],Active
same,Activity,PANC-1 [15],13.63%
same,Activity,PANC-1 [16],4.42%
same,Activity,[17],Non-toxic
same,Activity,PANC-1 [18],14.63%
same,Activity,[19],Non-toxic
same,Activity,[20],Non-toxic
same,Activity,PANC-1 [21],50.25%
same,Activity,PANC-1 [22],10.52%
same,Activity,PANC-1 [23],4.13%
same,Activity,PANC-1 [24],41.71%
same,Activity,PANC-1 [25],Active
same,Activity,PANC-1 [26],4.37%
same,Activity,PANC-1 [27],3.83%
same,Activity,PANC-1 [28],44.14%
same,viability at 10 µM,PANC-1 [29],86.3%
same,viability at 2.5 µM,PANC-1 [30],88.9%
Cc1sc2c(c1C)C(c1ccc(Cl)cc1)=N[C@@H](CC(=O)OC(C)(C)C)c1nnc(C)n1-2,Activity,PANC-1 [1],6.1%
same,Activity,PANC-1 [3],14.01%
same,IC50,PANC-1 [4],< 10 µM
same,IC50,CAPAN-1,< 10 µM
same,IC50,BXPC-3,< 10 µM
same,viability at 2 µM,PANC-1 [7],74.4%
same,Activity,PANC-1 [9],59.44%
same,Activity,PANC-1 [10],6.51%
same,Activity,PANC-1 [18],12.12%
same,Activity,PANC-1 [24],28.44%
O=C(c1cc(Cc2n[nH]c(=O)c3ccccc23)ccc1F)N1CCN(C(=O)C2CC2)CC1 [OLAPARIB],Activity,PANC-1 [1],3.48%
same,Activity,PANC-1 [2],2.91%
same,Activity,PANC-1 [3],4.61%
same,IC50,PANC-1 [4],< 10 µM
same,Activity,PANC-1 [5],19.74%
same,IC50,CAPAN-1,< 10 µM
same,IC50,BXPC-3,< 10 µM
same,Activity,[6],Toxic
same,viability at 2 µM,PANC-1 [7],89.7%
same,Activity,[8],Non-toxic
same,Activity,PANC-1 [9],45.99%
same,Activity,PANC-1 [10],2.23%
same,Activity,PANC-1 [11],12.43%
same,Activity,PANC-1 [12],Active
same,Activity,[13],Non-toxic
same,Activity,PANC-1 [14],Active
same,Activity,PANC-1 [15],15.24%
same,Activity,PANC-1 [16],4.53%
same,Activity,[17],Non-toxic
same,Activity,PANC-1 [18],14.61%
same,Activity,[19],Non-toxic
same,Activity,[20],Non-toxic
same,Activity,PANC-1 [21],58.42%
same,Activity,PANC-1 [22],10.68%
same,Activity,PANC-1 [23],2.76%
same,Activity,PANC-1 [24],39.4%
same,Activity,PANC-1 [25],Active
same,Activity,PANC-1 [26],4.7%
same,Activity,PANC-1 [27],3.35%
same,Activity,PANC-1 [28],42.54%
same,viability at 10 µM,PANC-1 [29],87.3%
same,viability at 2.5 µM,PANC-1 [30],89.2%
